Patent US20210253518A1, “KINASE INHIBITOR” (NISSAN CHEMICAL CORPORATION, priority 2018, published 2021)

Test system: YAP, phosphorylated YAP (Ser127), TAZ
Assay: Western blotting of YAP, phosphorylated YAP, TAZ in SKOV3 cells (2D and 3D culture)
Type: cell-based, human
Settings: 1, 5, 10 μM, 1 hr, both 2D culture and 3D culture, FIG. 1
Procedure: 2D culture conditions: Human ovarian cancer cell line SKOV3 cultured according to the protocol recommended by DS Pharma Biomedical Co., Ltd. was suspended in McCoy's 5a medium (manufactured by Sigma-Aldrich) containing 15% (v/v) FBS and seeded on a 100 mm plate (manufactured by Corning Incorporated, #430167) at 1,000,000 cells/10 mL and cultured in a CO2 incubator for 24 hr. Successively, k-1:B-1 dissolved in DMSO was added to the culture medium at a final concentration of 1, 5, 10 μM. As the control, the medium without addition and the medium added with DMSO were cultured. After 1 hr, the cells were washed 3 times with ice-cooled phosphate buffered saline (PBS, manufactured by Wako Pure Chemical Industries, Ltd.), 250 μL of RIPA Buffer (manufactured by Wako Pure Chemical Industries, Ltd.) containing a protease inhibitor cocktail (manufactured by Roche) was added, and the cells were lysed with a scraper. […] The supernatant was dispensed, the protein concentration was measured using BCA protein assay kit (manufactured by PIERCE), and then SDS (sodium dodecyl sulfate) gel electrophoresis was performed on the lysate. […] After incubation with a secondary antibody (manufactured by Horseradish peroxidase) linked with an anti-rabbit HRP (horseradish peroxidase) or an anti-mouse HRP, the protein was detected by a chemiluminescence detector (manufactured by BioRad) using ImmunoStar Zeta (manufactured by Wako Pure Chemical Industries, Ltd.).
3D culture conditions: According to the method of patent document (WO 2014/017513), a composition of McCoy's 5a medium (manufactured by Sigma-Aldrich) containing 0.015% (w/v) deacylated gellan gum (KELCOGEL CG-LA, manufactured by Sansho Co., Ltd.), 30 ng/mL human HB-EGF (manufactured by PEPROTECH), and 15% (v/v) FBS was prepared. […] The supernatant was dispensed, the protein concentration was measured using BCA protein assay kit (manufactured by PIERCE), and then SDS gel electrophoresis was performed on the lysate. […]

## CC/C(=N\NC(=O)C(C)Nc1ccccc1)c1ccc(O)c(C)c1O (stereo not drawn) [k-1:B-1]
  phosphorylation of YAP: suppressed
  total TAZ protein amount in the cell: increased
  total YAP protein amount in the cell: increased
